The text below walks through data of patent US6139840A, “Methods of eliciting an antibody response using flea protease proteins and homologs thereof” (priority 1997, dated 2000).

Where two headings read alike, the source gives them in different places.

Data set [1] relates to flea aminopeptidase. The data set is described as follows: Leu-AMC cleavage by serine protease-depleted flea midgut lysate. In kind it is biochemical. The protocol:
The starting material for the isolation of a flea aminopeptidase was a flea midgut lysate preparation that had been depleted of serine proteases by passage over a benzamidine-Sepharose affinity column. To assay for aminopeptidase activity, the synthetic substrate L-Leucine-AMC (Leu-AMC), which releases a fluorescent AMC leaving group upon proteolytic cleavage, was incubated with the serine protease-depleted flea midgut preparation. Aminopeptidase activity was easily detectable with as little as 1.2 μg of lysate, both confirming the presence of an aminopeptidase (as indicated in other Examples herein) and allowing for the detection of aminopeptidase activity in fractions collected throughout subsequent fractionation and purification procedures.

Data set [2] has as its system leucine aminopeptidase. Kind of data set: Leu-AMC cleavage by control protease. It is filed as biochemical. As to conditions: 10 mM EDTA, 86 μg/ml bestatin; substrate Leu-AMC.
Data set [3] deals with adult fleas. Kind of data set: Flea feeding system: viability and fecundity of fleas fed blood containing protease inhibitors. It is filed as in vivo. The conditions noted are these: for Fecundity Days 1-7 / Adult Survival Female / Adult Survival Male / Adult Survival Total: percent of corresponding control group. The protocol: This Example evaluates the effect of a number of protease inhibitors on flea viability and fecundity in a flea feeding system as described by Wade et al. ibid.
Protease inhibitor compounds were tested in groups of 3 to 6 including appropriate control groups. Inhibitors were not tested in groups of common inhibition types. Rather, they were tested in groups based on the diluent needed to dissolve them. (AEBSF, aprotinin, bestatin, leupeptin, phosphoramidon, soybean trypsin inhibitor and soybean trypsin/chymotrypsin inhibitor were dissolved in water; E-64 and pepstatin were dissolved in ethanol). This reduced the number of control (diluent only) groups needed within a particular assay. Inhibitor concentrations were chosen such that the lower concentration used was within the range recommended by the supplier for that inhibitor. The higher concentration was typically 10 times above the lower concentration and was used to look for dose response.
The general protocol for all of the assays was as follows: Approximately 2000 newly emerged adult fleas were placed in feeding chambers to feed on normal blood for about 24 to 48 hr. The fleas were prefed for two reasons: The first was to be certain that only fleas that would feed in the feeding system were used in the comparative study.
The prefed fleas were placed in "minifeeder" feeding chambers at a ratio of about 80 female fleas to about 20 male fleas for a total of about 100 fleas per chamber. Actual total number of fleas per chamber varied from about 90 to 125 fleas. […] Three chambers were prepared for each experimental and control group. A fresh blood meal containing the appropriate inhibitor in 3 ml total volume was placed on each chamber daily through the 7 day extent of an assay.
On days 3, 5, and 7 of the assay, surviving adult fleas were transferred to clean chambers. The contents of the original chambers were dissolved in about 40 ml of PBS (phosphate-buffered saline) in a 50 ml Falcon tube. The contents of a given tube were then filtered through a preweighed #1 Whatman filter disk inserted into a vacuum filter. The 50 ml tube and the filter funnel were rinsed with distilled water which was then passed through the filter. Once the chamber contents had been filtered, dead adult fleas were removed from the filter paper and placed in a labelled tube so that they could be counted and sexed. The filter paper was then placed into a preweighed 12×75 polypropylene tube and dried in the SpeedVac for 2.5 hr with the heater on. After drying the filter paper was weighed. The weight of the filter paper and tube was subtracted to obtain the dry weight of the eggs and this value was converted to an estimated number of eggs using the formula y=41384.361x+162.37, where x=dry weight of eggs.
On day 7, adult fleas that had survived the study were frozen, counted and sexed. The numbers were added to the number of male and female fleas that had died during the assay to verify the number of male and female fleas in each chamber at the start of the study.
Female, male and total adult flea survival were calculated for all experimental and control groups on days 3, 5, and 7 of each assay. Additionally, the number of eggs per surviving female was calculated on days 3, 5 and 7. Female fleas found dead on a given collection date were included in the total number of egg-laying females for the days between that date and the previous collection date, providing a conservative estimate of fecundity. Fecundity values were averaged for the three collection dates to obtain an average for each group over 7 days.
Results of these studies are presented below in Table 1 and FIG. 6 through FIG. 9. All survival and fecundity values are presented below as a percent of control value.

Data set [4] concerns soluble fed and unfed flea midgut preparations. In kind it is biochemical. The conditions noted are these: substrate BAPNA. From the text:
Pellets from the centrifugation step were also collected and resuspended for analysis. Also prepared were whole flea lysates.

The subject of data set [5] is flea midgut proteases. Kind of data set: Protease substrate gel analysis of flea midguts with protease inhibitors in the incubation buffers. It is filed as biochemical. The protocol: Protease substrate gels (available from Novex, San Diego, Calif., as Novex Zymogels) were 10% polyacrylamide-SDS gels with 0.1% gelatin. Samples and gels were processed according to Novex instructions. Briefly, samples were diluted in SDS-PAGE sample buffer without reducing agents. Tris-glycine SDS-PAGE was carried out by standard procedures. After electrophoresis, gels were incubated in 0.25% Triton X-100 at room temperature for 30 minutes (min), then in developing buffer (50 mM (millimolar) Tris-HCl pH 7.0, 5 mM CaCl2, 0.02% Brij 35, 0.2 M (molar) NaCl) at room temperature for 30 min, and then incubated with fresh developing buffer at 37° C., usually overnight. Gels were then stained 30 min in 0.5% coomassie R-250, 40% methanol, 10% acetic acid and destained in 40% methanol, 10% acetic acid.
Three unfed female midguts and 0.75 fed female midguts were evaluated in duplicate in several protease substrate gels. Each gel was cut in half. Half was processed as described in Example 2, while the other half contained protease inhibitors in all incubation buffers. The following inhibitors were evaluated:
Mixed-sex fed flea midguts were processed as described in U.S. Pat. No. 5,356,622, ibid. Aliquots of several steps of the procedure were evaluated by loading an equivalent of 0.4 midguts per lane of a protease substrate gel as described in Example 2. Samples were from the low speed supernatant (lanes 2 and 9), sonicated midguts (lanes 3 and 10), high speed supernatant (lanes 4 and 11), combined low and high speed supernatants (FGS) (lanes 5 and 12) and the high speed pellet (lanes 6 and 13). Lanes 7 and 8 contained 50 nanograms (ng) of trypsin as a control. Duplicate lanes were evaluated. The gel was cut in half, and lanes 1-7 were processed as described in Example 2, and lanes 8-14 were processed with 100 μg/ml soybean trypsin inhibitor in all the incubation buffers.

Where [6] appears, read: at the concentrations tested in blood meal.

As to `O=C(O)CN(CCN(CC(=O)O)CC(=O)O)CC(=O)O` [EDTA, ethylenediaminetetraacetic acid], the “inhibition of the flea protease that cleaved Leu-AMC” value in data set [1] was “Only bestatin inhibited”. In addition, the “inhibition of the control protease” value in data set [2] was “inhibited”.
As to `CC(C)C[C@H](NC(=O)[C@@H](O)[C@H](N)Cc1ccccc1)C(=O)O` [Bestatin], the “Fecundity Days 1-7” value is on record as 60.4% in data set [3] (1.3 mM in blood meal) and 23.3% in data set [3] (13.0 mM in blood meal). Further, the reduction in fecundity in data set [3] (1.3 mM in blood meal, significant (p<0.05)) worked out at 40%; in data set [3] (13 mM in blood meal, significant (p<0.05)), 77%. The “effect on adult viability” value in data set [3] (setting [6]) is on record as “no significant effect on adult viability”. Besides, in data set [1] (1 mM pefabloc, 1 mg/ml trypsin/chymotrypsin inhibitor, 1 mg/ml trypsin inhibitor, 1 mM TPCK, 1 μg/ml pepstatin, 10 μg/ml E-64, 10 μg/ml leupeptin, 10 mM EDTA, 86 μg/ml bestatin, lysate about 1.2 μg and about 12 μg), the “inhibition of the flea protease that cleaved Leu-AMC” value is “inhibited”. Also, the “inhibition of the control protease” value in data set [2] is recorded as “inhibited”.
In the case of Aprotinin, the “inhibition of ability to cleave BAPNA (proteolytic activity)” value in data set [4] is reported as ~100%. For the same molecule, in data set [3] (2 μg/ml in blood meal), the “Adult Survival Female” value is reported as 103.2%, the “Adult Survival Male” value turned out to be 104.9%, the “Adult Survival Total” value is 103.3% and the “Fecundity Days 1-7” value turned out to be 83.2%. Further, in data set [3] (20 μg/ml in blood meal), the “Adult Survival Female” value is reported as 100.0%, the “Adult Survival Male” value was 101.7%, the “Adult Survival Total” value was found to be 99.9% and the “Fecundity Days 1-7” value is listed as 84.2%. For the same molecule, in data set [3] (setting [6]), the “effect on adult viability” value was “no significant effect” and the effect on fecundity entry is listed as “no significant effect”.
In the case of `O=S(=O)(F)Cc1ccccc1` [PMSF, phenylmethane-7-sulfonyl fluoride], the “inhibition of ability to cleave BAPNA (proteolytic activity)” value in data set [4] is given as “about 50%”.

B1: Soybean Trypsin Inhibitor: serine protease inhibitor, available from Sigma (protein, UniProt P01070 25-205, looked up)
Trypsin inhibitor A: DFVLDNEGNPLENGGTYYILSDITAFGGIRAAPTGNERCPLTVVQSRNELDKGIGTIISSPYRIRFIAEGHPLSLKFDSFAVIMLCVGIPTEWSVVEDLPEGPAVKIGENKDAMDGWFRLERVSDDEFNNYKLVFCPQQAEDDKCGDIGISIDHDDGTRRLVVSKNKPLVVQFQKLDKESL
With B1, in data set [5] (mixed-sex fed flea midgut fractions, 100 μg/ml in all incubation buffers), the “inhibition of protease activity in protease substrate gel” value is on record as “majority of the activity was inhibited”. In addition, the “effect on protease activity in protease substrate gel” value in data set [5] (unfed and fed female midguts, AEBSF 1 mM, soybean trypsin inhibitor 100 μg/ml, leupeptin 10 μg/ml in all incubation buffers) is listed as “only inhibitors to have any effect”. In data set [3] (10 μg/ml in blood meal), the effect on fecundity result was “no effect”, the “Adult Survival Female” value is 80.1%, the “Adult Survival Male” value turned out to be 101.7% and the “Adult Survival Total” value came to 83.9%. Besides, the “Fecundity Days 1-7” value in data set [3] (10 μg/ml in blood meal) was found to be 96.1%. Besides, in data set [3] (100 μg/ml in blood meal), the “Adult Survival Female” value came out at 76.5%, the “Adult Survival Male” value is 76.0%, the “Adult Survival Total” value is 76.3% and the “Fecundity Days 1-7” value was determined as 79.1%. The same molecule yielded a reduction in fecundity in data set [3] (100 μg/ml in blood meal, statistically insignificant) of 20%. The “inhibition of the flea protease that cleaved Leu-AMC” value in data set [1] was “Only bestatin inhibited”.
